This is an account of results in US12343319B2, “Compositions and methods for treatment of diseases and disorders” (Atai Therapeutics Inc., priority 2023, dated 2025).

The test system of one data set is Male WKY rats. Put plainly: Sleep-wake behavior, EEG power, body temperature and locomotor activity in WKY rats. The data set is classed as in vivo, rat. To be noted: over 6 hours post dose, WKY rats, IP. Here is the method: Male WKY rats (n=7, 289-388 g at the start of dosing) were housed in groups of 2-3 animals per cage with standard housing conditions. For implantation of the EEG electrodes and radio transmitter, the animals were anesthetized with isoflurane (2-5% in oxygen at 11/min) throughout the procedure. The scalp, neck and right flank were cleared of hair using clippers and cleaned using diluted Hibitane (chlorhexidine, 50% (v/v) in water). A non-steroidal anti-inflammatory agent was administered (carprofen 5 mg/kg, s.c.) and the animals placed on a homeothermic blanket (37° C.) with the head fixed in a stereotaxic frame. Incisions were made in the scalp and neck, as well as in the right flank. Blunt dissection of the abdominal muscle was then made to gain access to the peritoneal cavity. A radio transmitter (HD-S02, Data Sciences International) was implanted in the peritoneal cavity and secured to the muscle wall with non-absorbable sutures. The wires of the transmitter were passed using a 19G needle through the muscle wall and then sub-dermally to the scalp to act as Electroencephalogram (EEG)/Electromyograph (EMG) electrodes. The scalp was cleared of connective tissue and two craniotomies were made with a trepanning drill (fronto-parietal coordinates; Bregma+2 mm anterior, midline+1.0 mm lateral and Lambda 0 mm, +1.5 mm lateral). The positive EEG electrode was attached to the anterior craniotomy and the negative EEG electrode to the posterior craniotomy. Both electrodes were secured in place using a suitable adhesive agent (cyanoacrylate gel, RS components). A second set of electrodes were sutured into the nuchal muscle to act as EMG electrodes. All incisions were closed using absorbable suture.
All animals were allowed to recover in a warm environment and given 5 ml of saline subcutaneously (s.c.). Animals were kept singly in the cage until the next day, then pair housed for the duration of post-surgical recovery (minimum 7 days). During the recovery period, the rats received 5 days of standard post-operative care with no further experimental procedures until the pre-operative body weight was regained. The animals were maintained on a 12/12 hour light dark cycle (08:00 am lights on) after the surgery. Home cages and post-operative cages contained bedding and nesting material, along with environmental enrichment such as wooden chew-sticks and plastic tunnels.
On test days, ˜60 minutes after lights-on, animals were placed in recording boxes similar to their home-cages, except that environmental enrichment was restricted to a large bundle of nesting and bedding material, to avoid interference with the telemeter signals. Then, data acquisition was initiated for confirmation of signal quality. EEG and EMG data were acquired using intraperitoneal HD-S02 transmitters (DSI, New Brighton, MN) and Spike2 software (CED). EEG and EMG signals were digitized 500 samples/second, amplified 1000× and bandpass filtered at 0.5-100 Hertz (Hz). After 60 minutes of habituation, each animal was briefly removed from its box and dosed via the intraperitoneal (i.p.) route in a volume of 2 mL/kg. Test conditions included saline vehicle, psilocybin (10 mg/kg) positive control, compound 2-1 at 3, 10 and 30 mg/kg and compound 2-2 at 10, 17 and 30 mg/kg. Doses were based on the molecular weight of the free bases. compound 2-1 and compound 2-2 dosing solutions were prepared in 40% (w/v) hydroxypropyl-beta-cyclodextrin. After dosing, animals were immediately put back into the recording boxes, the experimenter left the room, and recordings continued uninterrupted for 23 hours. At the end of the recording session, the transmitters were turned off and the animals were returned to their home cages. All animals received all treatment conditions in a pseudo randomized cross-over fashion with a minimum washout period of 7 days between doses.
All data was aligned to zero (the time of dosing), with epochs defined as non-overlapping 10-second time segments. […]

For data set [1], the target named is T1, 5-HT2A receptors in the mouse frontal cortex (Mus musculus, UniProt P35363).
T1 construct: Left frontal cortices from each animal were homogenized individually; from tissue
Put plainly: Ex vivo 5-HT2A receptor occupancy ([3H]cimbi-36) in mouse frontal cortex. To be noted: mouse, 3 mg/kg IP, 15 minutes post dosing.

Data set [2] concerns Male Sprague-Dawley rats. The experiment in a line: 5-HT2A/2C/1A-mediated behaviors, locomotor activity and body temperature in rats. As to conditions: 1 mg/kg SC. The data set is classed as in vivo, rat. How it is done:
Forty (40) male Sprague-Dawley rats were used as test subjects in this study. Animals were dosed with vehicle (IP), one of 3 doses of compound 2-2 (3 mg/kg, 10 mg/kg, 30 mg/kg IP) or psilocybin (1 mg/kg SC) and, following the appropriate pre-treatment time, were placed in locomotor activity boxes and continuously monitored for a 1 hr period with data collected into 10-minute time bins. Animals were visually assed for overt behavioral signs, including biomarkers for 5-HT2A receptor target engagement (i.e. wet dog shakes, back muscle contractions and stereotypic behaviors), 5-HT2C receptor activation (yawning, penile grooming), and 5-HT1A behaviors (forepaw treading, hindlimb abduction). Additional behavioral and somatic signs characteristic of 5-HT syndrome (i.e. tremor, salivation, flat body posture) also were measured. Core body temperature change was determined at 0 hr (pre-dose), 1 hr, and 2 hr. Simultaneously, the spontaneous locomotor activity of the rats was measured using automated Med Associates activity test chambers. Activity data collected included total distance travelled, rearing counts, and ambulatory episodes. LMA was measured for a total of 2 hours (i.e. the first hour to include visual assessments of behavioral signs, and the second hour the animals will not be assessed for behavioral signs) with data collected into 10 minute time bins. The tracking arena measured 17″ W×17″ L×12″ H, sensor bars were secured 1″ above the floor to track distance travelled, and a second set of sensor bars were placed ˜5″ above the floor to measure vertical movement and rearing activity. The parameters set on the tracking software were as follows: resolution −50 ms, box size −4 beams, resting delay −500 ms, and ambulatory trigger −3.
Table 14 outlines receptor activity and related behavioral and/or physiological measures.

Data set [3] relates to Male Sprague-Dawley rats. The experiment in a line: Rat forced swim test, immobility frequency. The data set is classed as in vivo. To be noted: 10 mg/kg, i.p., once 24 hours prior to the swim test. How it is done:
Male Sprague-Dawley rats were placed individually in clear acrylic swim chambers (40 cm height×20.3 cm diameter) filled to 16 cm for a 15-minute pre-swim session on day 1 and filled to 30 cm for a 5-minute swim test session 24 hours later. Rats (n=10 per treatment group) were administered compound 2-1 (3, 10, 30 mg/kg, i.p., 1 mL/kg, based on weight of the free base) or vehicle (40% (w/v) 2-HPBCD in water, i.p.) at 23.5, 16 and 0.5 hours prior to the swim test. The rapid-acting antidepressant, ketamine (10 mg/kg, i.p.), was included in the study as a positive control condition and injected once 24 hours prior to the swim test.

In data set [4] the test system is primary cortical rat neurons. Put plainly: Synaptogenesis assay in primary cortical rat neurons. The data set is classed as cell-based. How it is done: Pregnant rats for this study were purchased from a commercial breeder. Primary cortical neurons from E17/E18 rat pups were isolated and seeded in 96-well plates. Cells were treated with compound 2-2, FGF (Reference item) or vehicle. After incubation with the respective treatment, cortical neurons were stained for synapsin and tubulin using immunofluorescence.
Stained cells were imaged with the Cytation 5 Multimode reader. From each well, 9 images were taken at 10× magnification. Digital images from cortical neurons were analyzed for the following parameter using a software-supported automatic quantification method: Number of synapsin positive objects. Analysis was performed using Gen5 software. The experiment was run in n=10 technical replicates per condition. Vehicle control and FGF were included on each plate totaling n=20 technical replicates.
Primary cortical neurons were prepared from timed pregnant Spargue Dawley rats at E17/E18. Animals were sacrificed (see section 3.3.1) and embryos were dissected in Calcium and Magnesium free Hanks Balanced Salt Solution (CMF-HBSS) containing 15 mM HEPES and 10 mM NaHCO3, pH 7.2. Embryos were decapitated, skin and skull gently removed and hemispheres were separated. After removing meninges and brain stem, the cortices were isolated, chopped with a sterile razor blade in Chop solution (Hibernate-E without Calcium containing 2% B-27) and digested in 2 mg/mL papain (Worthington) dissolved in Hibernate-E without Calcium for 30 minutes (±5 min) at 30° C. The cortices of the embryos from the two rats were pooled and processed together.
Cortices were triturated for 10-15 times with a fire-polished silanized Pasteur pipette in Hibernate-E without Calcium containing 2% B-27, 0.01% DNaseI, 1 mg/mL BSA, and 1 mg/mL Ovomucoid Inhibitor. Undispersed pieces were allowed to settle by gravity for 3 min and the supernatant was centrifuged for 3 min at 228 g. […]
Cells were counted in a hemacytometer and seeded in nutrition medium on poly-D-lysine pre-coated 96-well plates at a density of 1.5×10^4 cells/well. […]

In data set [5] the target is T2, 5-HT2A receptor (Mus musculus, UniProt P35363). The experiment in a line: 5-HT2A receptor binding in mouse frontal cortical tissue. As to conditions: for Ki: Mean (Mouse), mouse frontal cortical tissue.
The target of data set [6] is T2, 5-HT2A receptor. Further details: endogenous in cells; host or cells: adult male C57BL/6J mice, in vivo. As to conditions: i.p., same assay, Klein et al., 2021; cited from earlier work.

T2 sequence (P35363 whole entry): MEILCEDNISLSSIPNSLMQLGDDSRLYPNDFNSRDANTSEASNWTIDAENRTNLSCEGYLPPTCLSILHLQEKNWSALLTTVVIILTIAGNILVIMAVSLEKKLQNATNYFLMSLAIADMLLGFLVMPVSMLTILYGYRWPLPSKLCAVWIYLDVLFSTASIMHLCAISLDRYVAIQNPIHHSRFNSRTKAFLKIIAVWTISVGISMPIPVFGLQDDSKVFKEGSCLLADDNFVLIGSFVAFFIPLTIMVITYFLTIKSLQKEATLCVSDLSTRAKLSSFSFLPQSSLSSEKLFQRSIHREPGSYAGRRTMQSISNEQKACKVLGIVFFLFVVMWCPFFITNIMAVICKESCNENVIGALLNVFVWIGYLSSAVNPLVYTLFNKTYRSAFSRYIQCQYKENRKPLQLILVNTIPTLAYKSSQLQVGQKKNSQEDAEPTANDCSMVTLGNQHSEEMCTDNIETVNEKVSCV
T1 sequence (P35363 whole entry): as above

Regarding `CN(C)CCc1c[nH]c2cccc(OP(=O)(O)O)c12` [Psilocybin, psilocybin, reference compound], the body temperature result with Male WKY rats was “↓(for 6 h)”. The receptor occupancy at 3 mg/kg in data set [1] (read-out: % Receptor Occupancy (RO)) amounted to 19%. For the same compound, in data set [1] (read-out: % of Control Binding), the remaining activity at 3 mg/kg was 81%. In the data set on Male Sprague-Dawley rats [2], the “distance travelled during the first 20 minutes of the 2 hour test” value is on record as “decreased” and the “total locomotor activity measures” value is “did not affect”.

For `CNC1(c2ccccc2Cl)CCCCC1=O` (stereo not drawn) [Ketamine, ketamine, reference compound], in the data set with Male Sprague-Dawley rats [3], the “immobility compared to vehicle” value is listed as “significantly decreased”.

As to `CN(C)CCc1c[nH]c2ccccc12` [N,N-DMT], the “synaptogenesis compared to VC (synapsin positive objects normalized to tubulin III area)” value was “significant increase” in data set [4] (1 μM (highest concentration), DIV1-DIV10) and “no significance” in data set [4] (lower concentrations (below 1 μM)).

In turn, `CN(C)CCc1c[nH]c2cccc(O)c12` [Psilocin, psilocin] yielded an IC50 on 5-HT2A receptor [5] of 99 nM. The Ki on 5-HT2A receptor [5] (Ki) was 45.1 nM; on 5-HT2A receptor [5] (pKi), 45.7 nM. For the same compound, on 5-HT2A receptor [6], the “HTR ED50” value is 0.17 mg/kg.
